The target of assay [1] is T1, CDK9/CycK (Homo sapiens, UniProt P50750).
T1 construct: ICE Bioscience Inc. (assay service)
Nature of the assay: CDK family panel, ADP-Glo. It counts as biochemical. For orientation: In ADP-Glo the light output rises with the ADP produced.
Protocol: (§1) All the kinase activity were performed using an ADP-Glo kinase assay by ICE Bioscience Inc. (Beijing, China).

Assay [2] relates to normal and non-neoplastic cells. Kind of assay: Cell viability panel. It counts as cell-based, human. The note with it: 5 days of treatment, compared with sensitive cancer cells. The procedure:
Cells were seeded in 96-well plates and incubated at 37 °C and 5% CO2. After overnight incubation, serial dilutions of tested compounds were added to the plate. The assay was tested with Cell Titer-Glo (Promega) after 5 days. The luminescence signal was detected by the Infinite M1000 Pro plate reader (Tecan), and the IC50 values were calculated by GraphPad Prism 10.

In assay [3] the target is T2, CDK2/CycA2 (Homo sapiens, UniProt P24941).
T2 construct: ICE Bioscience Inc. (assay service)
Nature of the assay: CDK family panel, ADP-Glo. It counts as biochemical.
Protocol: as §1

Assay [4] has as its target T3, CDK16/CycY (Homo sapiens, UniProt Q00536).
T3 construct: ICE Bioscience Inc. (assay service)
Kind of assay: CDK family panel, ADP-Glo. It counts as biochemical.
Protocol: as §1

The target in assay [5] is T4, CDK18/CycY (Homo sapiens, UniProt Q07002).
T4 construct: ICE Bioscience Inc. (assay service)
Kind of assay: CDK family panel, ADP-Glo. The format is biochemical.
Protocol: All the kinase activity were performed using an ADP-Glo kinase assay by ICE Bioscience Inc. (Beijing, China). Kinome selectivity profiles (KINOMEscan profiling) and Kd detection were performed by Eurofins DiscoveryX Corporation (San Diego, CA, USA).

In assay [6] the test system is VCaP CRPC xenograft. Kind of assay: In vivo efficacy, VCaP CRPC mouse model. The note with it: YJZ5118 i.p., q.d., uprosertib p.o., 5x/week, 27 days, compared to vehicle. On the set-up: species or system mice. The procedure:
All the animal experiments were performed under an approved animal protocol (Protocol ID: PRO00010006, PI, Arul Chinnaiyan) by the Institutional Animal Care & Use Committee of the University of Michigan. Six- to eight-week-old NSG (Jackson Laboratory) or CB17SCID female (Charles River Laboratory) mice were in a regular SPF housing room prior to cell injection. Briefly, 5 ×10^6 cells of VCaP CRPC were injected […] of NSG or CB17SCID mice, respectively. After tumor size reached approximately 200–400 mm^3, animals were subjected to drug treatment. […] Vehicle consisted of 20% PEG400, 6% Cremophor EL, and 74% PBS solution. Tumors were collected at the end of the experiment for Western blot analysis.

In assay [7] the test system is VCaP cells. Kind of assay: Cell apoptosis assay by flow cytometry. The format is cell-based, human. The note with it: YJZ5118 at 100 nM. The procedure:
Cells were seeded in six-well plates and incubated for 24 h at 37 °C and 5% CO2. Cells were then treated with the indicated concentrations of the tested compounds for 48 h. The treated cells then were collected, centrifuged and washed twice by cold PBS. […] Cell samples were analyzed with flow cytometry (SH800S cell sorter, Sony Biotechnology).

Assay [8] addresses T5, CDK19/CycC (Homo sapiens, UniProt Q9BWU1).
T5 construct: ICE Bioscience Inc. (assay service)
Nature of the assay: CDK family panel, ADP-Glo. It counts as biochemical.
Protocol: as §1

Bounds are passed on as bounds.

As a reminder, the IC50 is the concentration at which inhibition is half-maximal. High values mean lower potency, low ones higher potency.

T3 sequence (Q00536 whole entry, species assumed): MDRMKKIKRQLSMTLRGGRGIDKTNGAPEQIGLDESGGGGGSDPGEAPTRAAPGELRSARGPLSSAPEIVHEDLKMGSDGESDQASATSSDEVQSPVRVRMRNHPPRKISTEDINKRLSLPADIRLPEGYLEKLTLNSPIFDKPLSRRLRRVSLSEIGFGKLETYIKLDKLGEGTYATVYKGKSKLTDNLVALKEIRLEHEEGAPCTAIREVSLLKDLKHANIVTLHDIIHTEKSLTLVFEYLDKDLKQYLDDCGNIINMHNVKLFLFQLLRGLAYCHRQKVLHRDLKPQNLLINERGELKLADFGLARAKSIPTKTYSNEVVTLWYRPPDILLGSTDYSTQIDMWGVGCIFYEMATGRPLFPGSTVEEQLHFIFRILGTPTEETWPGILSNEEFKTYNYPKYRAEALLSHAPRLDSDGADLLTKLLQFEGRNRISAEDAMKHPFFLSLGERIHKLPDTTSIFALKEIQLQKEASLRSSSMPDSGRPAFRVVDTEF
T3 sequence (Q8ND76 whole entry partner, species assumed): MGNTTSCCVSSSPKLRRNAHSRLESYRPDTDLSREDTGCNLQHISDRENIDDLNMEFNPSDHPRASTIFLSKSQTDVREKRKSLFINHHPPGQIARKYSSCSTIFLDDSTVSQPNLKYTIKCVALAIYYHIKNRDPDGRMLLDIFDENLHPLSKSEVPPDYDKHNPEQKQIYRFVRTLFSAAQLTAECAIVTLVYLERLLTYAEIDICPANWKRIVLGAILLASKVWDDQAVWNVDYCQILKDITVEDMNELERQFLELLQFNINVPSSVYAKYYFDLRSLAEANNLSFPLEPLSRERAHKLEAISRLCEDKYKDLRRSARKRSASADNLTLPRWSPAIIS
T4 sequence (Q07002 whole entry, species assumed): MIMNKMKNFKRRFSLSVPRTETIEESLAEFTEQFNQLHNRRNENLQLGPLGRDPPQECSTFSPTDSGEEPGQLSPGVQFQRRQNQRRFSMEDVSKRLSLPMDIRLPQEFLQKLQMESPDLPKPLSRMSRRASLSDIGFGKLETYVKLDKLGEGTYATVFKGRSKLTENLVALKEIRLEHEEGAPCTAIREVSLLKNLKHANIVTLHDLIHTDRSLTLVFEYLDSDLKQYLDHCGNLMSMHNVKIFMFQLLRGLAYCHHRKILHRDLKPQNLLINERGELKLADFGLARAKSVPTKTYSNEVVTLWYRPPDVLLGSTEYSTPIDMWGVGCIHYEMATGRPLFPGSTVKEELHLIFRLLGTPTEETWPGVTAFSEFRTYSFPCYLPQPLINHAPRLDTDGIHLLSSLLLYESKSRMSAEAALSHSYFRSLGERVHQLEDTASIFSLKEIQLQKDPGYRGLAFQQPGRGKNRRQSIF
T4 sequence (Q8ND76 whole entry partner, species assumed): as the sequence (Q8ND76 whole entry partner, species assumed) above
T1 sequence (P50750 whole entry, species assumed): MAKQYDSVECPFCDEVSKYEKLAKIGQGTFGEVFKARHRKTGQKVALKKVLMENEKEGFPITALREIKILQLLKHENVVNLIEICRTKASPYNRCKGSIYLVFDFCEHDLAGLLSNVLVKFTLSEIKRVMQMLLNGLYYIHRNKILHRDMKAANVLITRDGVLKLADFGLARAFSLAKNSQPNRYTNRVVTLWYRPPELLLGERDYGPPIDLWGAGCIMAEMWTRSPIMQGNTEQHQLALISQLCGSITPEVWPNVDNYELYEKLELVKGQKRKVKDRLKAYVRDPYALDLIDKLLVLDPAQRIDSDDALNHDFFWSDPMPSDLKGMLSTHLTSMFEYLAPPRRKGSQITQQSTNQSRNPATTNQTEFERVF
T1 sequence (O75909 whole entry partner, species assumed): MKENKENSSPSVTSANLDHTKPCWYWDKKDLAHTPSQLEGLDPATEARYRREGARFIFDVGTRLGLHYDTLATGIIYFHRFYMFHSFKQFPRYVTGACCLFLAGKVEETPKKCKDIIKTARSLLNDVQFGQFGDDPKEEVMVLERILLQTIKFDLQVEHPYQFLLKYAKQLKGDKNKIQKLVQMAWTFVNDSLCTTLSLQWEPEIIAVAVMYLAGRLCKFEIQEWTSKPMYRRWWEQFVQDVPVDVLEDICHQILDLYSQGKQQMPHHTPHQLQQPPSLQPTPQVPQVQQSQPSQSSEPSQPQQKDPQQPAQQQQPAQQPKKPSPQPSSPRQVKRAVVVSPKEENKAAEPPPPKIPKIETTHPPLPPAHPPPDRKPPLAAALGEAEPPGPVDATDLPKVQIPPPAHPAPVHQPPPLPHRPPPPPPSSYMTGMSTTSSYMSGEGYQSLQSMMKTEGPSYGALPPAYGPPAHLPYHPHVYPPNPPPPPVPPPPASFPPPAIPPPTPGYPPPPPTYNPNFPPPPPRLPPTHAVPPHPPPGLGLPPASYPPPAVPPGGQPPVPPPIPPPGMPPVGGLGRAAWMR
T5 sequence (Q9BWU1 whole entry, species assumed): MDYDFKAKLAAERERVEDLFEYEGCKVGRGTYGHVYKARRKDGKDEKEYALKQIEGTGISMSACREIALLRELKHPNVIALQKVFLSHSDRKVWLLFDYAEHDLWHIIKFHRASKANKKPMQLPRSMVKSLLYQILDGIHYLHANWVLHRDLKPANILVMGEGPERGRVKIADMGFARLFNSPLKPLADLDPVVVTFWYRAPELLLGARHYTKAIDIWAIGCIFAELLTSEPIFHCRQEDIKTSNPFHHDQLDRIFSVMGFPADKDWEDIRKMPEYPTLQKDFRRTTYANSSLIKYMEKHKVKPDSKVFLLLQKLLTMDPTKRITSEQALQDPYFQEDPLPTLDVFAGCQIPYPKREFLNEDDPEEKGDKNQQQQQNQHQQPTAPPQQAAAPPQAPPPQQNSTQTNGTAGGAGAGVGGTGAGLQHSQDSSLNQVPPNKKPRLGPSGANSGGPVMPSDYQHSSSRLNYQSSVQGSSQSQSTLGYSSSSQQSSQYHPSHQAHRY
T5 sequence (P24863 whole entry partner, species assumed): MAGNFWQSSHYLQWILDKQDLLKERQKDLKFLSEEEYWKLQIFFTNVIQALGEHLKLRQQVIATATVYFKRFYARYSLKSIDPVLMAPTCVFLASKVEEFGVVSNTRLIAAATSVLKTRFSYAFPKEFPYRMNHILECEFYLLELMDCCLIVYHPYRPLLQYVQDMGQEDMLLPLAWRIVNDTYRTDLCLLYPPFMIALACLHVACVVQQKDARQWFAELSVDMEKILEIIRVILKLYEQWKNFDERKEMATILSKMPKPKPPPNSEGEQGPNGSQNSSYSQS

Consider `C=CC(=O)Nc1cc(N(C(=O)NCc2ccccc2)[C@H]2CC[C@H](Nc3ccc(C#N)cn3)CC2)ccc1N1CCC(N(C)C)CC1` [YJZ5118, N-(5-(3-benzyl-1-((1r,4r)-4-((5-cyanopyridin-2-yl)amino)cyclohexyl)ureido)-2-(4-(dimethylamino)piperidin-1-yl)phenyl)acrylamide], for which the half-maximal inhibitory concentration (IC50) is 7160 nM in assay [1]; > 10000 nM in assay [3]; > 10000 nM in assay [4]; > 10000 nM in assay [5]; > 10000 nM in assay [8]. For the same compound, the “sensitivity of normal and non-neoplastic cells” value in assay [2] is listed as “much lower sensitive”. In addition, the tumor growth entry in assay [6] was “significant reduction in tumor growth”. The same compound displayed an apoptosis rate in assay [7] of 28.5%.
